For 20 molecules, pKi results are on record in ChEMBL document CHEMBL1134390, “Comparative molecular field analysis of dopamine D4 receptor antagonists including 3-[4-(4-chlorophenyl)piperazin-1-ylmethyl]pyrazolo[1,5-a]pyridine (FAUC 113), 3-[4-(4-chlorophenyl)piperazin-1-ylmethyl]-1H-pyrrolo-[2,3-b]pyridine (L-745,870), and clozapine” (J Med Chem, 2001).

This test concerns the target T1, D(4) dopamine receptor (Homo sapiens) (UniProt P21917).
T1 sequence (whole entry): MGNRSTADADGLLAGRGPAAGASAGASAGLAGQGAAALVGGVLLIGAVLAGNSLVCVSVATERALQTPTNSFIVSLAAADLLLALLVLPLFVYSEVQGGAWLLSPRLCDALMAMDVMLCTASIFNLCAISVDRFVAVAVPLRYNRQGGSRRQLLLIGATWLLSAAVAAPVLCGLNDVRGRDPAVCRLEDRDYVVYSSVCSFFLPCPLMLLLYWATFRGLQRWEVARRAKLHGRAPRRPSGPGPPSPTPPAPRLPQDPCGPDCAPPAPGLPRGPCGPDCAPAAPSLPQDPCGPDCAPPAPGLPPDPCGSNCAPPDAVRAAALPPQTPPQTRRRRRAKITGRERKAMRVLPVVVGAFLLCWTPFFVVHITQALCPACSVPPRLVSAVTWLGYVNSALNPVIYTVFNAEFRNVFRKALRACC
The settings on record: CHO-K1.

Description: Ability to displace [3H]spiperone from dopamine receptor D4.4 expressed in CHO-K1 cells

As for `Clc1cccc(N2CCN(Cc3cnn4ccc5ccccc5c34)CC2)c1`, the pKi turned out to be 6.1. For `N#CC(C#N)=Cc1ccc(CN2CCN(c3ccc(Cl)cc3)CC2)[nH]1`, the pKi worked out at 8.02. Then `Clc1ccc(N2CCN(Cc3cc4ccccn4n3)CC2)cc1`, with 8.66; and `Clc1ccc(N2CCN(Cc3cnn4ccccc34)CC2)cc1Cl`, with 8.25; and `Clc1ccc(N2CCN(Cc3ccccc3)CC2)cc1`, with 6.6. For `Cc1cccc2c(CN3CCN(c4ccc(Cl)cc4)CC3)cnn12`, the pKi came to 8.57. `N#CC(C#N)=Cc1cc(CN2CCN(c3ccc(Cl)cc3)CC2)c[nH]1`: the pKi is 8.24.

`Clc1ccc(N2CCN(Cc3cnn4c(I)cccc34)CC2)cc1` gave a pKi of 8.3. `Clc1ccc(N2CCN(Cc3cc[nH]c3)CC2)cc1` gave a pKi of 7.41. Molecule `C#Cc1cccc2c(CN3CCN(c4ccc(Cl)cc4)CC3)cnn12` came in with a negative-log Ki (pKi) of 8.91.

Regarding `Clc1ccc(N2CCN(Cc3cc4ccccc4[nH]3)CC2)cc1`, the negative-log Ki (pKi) came to 7.74. `Cc1cccn2ncc(CN3CCN(c4ccc(Cl)cc4)CC3)c12` showed a pKi of 7.3. In turn, `CCN1CCN(Cc2cnn3ccccc23)CC1` gave a pKi of 4.62. The result for `Ic1ccc(N2CCN(Cc3cnn4ccccc34)CC2)cc1` reads 8.52; that for `FC(F)(F)c1cccc(N2CCN(Cc3cnn4ccccc34)CC2)c1`, 8.72; that for `Fc1ccc(N2CCN(Cc3cnn4ccccc34)CC2)cc1`, 7.7.

For `Clc1ccc(N2CCN(Cc3ccc[nH]3)CC2)cc1`, the pKi came out at 7.58.

Turning to `Clc1cccc(N2CCN(Cc3cnn4c3ccc3ccccc34)CC2)c1`, the negative logarithm of the Ki (pKi) came to 6.66. Molecule `OCc1ccc2c(CN3CCN(c4ccccc4)CC3)cnn2c1` yielded a pKi of 7.71. On to `C#Cc1ccc(N2CCN(Cc3cnn4ccccc34)CC2)cc1`, for which the pKi is 8.36.
